Biological target: T1, Progesterone receptor (Homo sapiens, UniProt P06401)
T1 sequence (P06401 whole entry): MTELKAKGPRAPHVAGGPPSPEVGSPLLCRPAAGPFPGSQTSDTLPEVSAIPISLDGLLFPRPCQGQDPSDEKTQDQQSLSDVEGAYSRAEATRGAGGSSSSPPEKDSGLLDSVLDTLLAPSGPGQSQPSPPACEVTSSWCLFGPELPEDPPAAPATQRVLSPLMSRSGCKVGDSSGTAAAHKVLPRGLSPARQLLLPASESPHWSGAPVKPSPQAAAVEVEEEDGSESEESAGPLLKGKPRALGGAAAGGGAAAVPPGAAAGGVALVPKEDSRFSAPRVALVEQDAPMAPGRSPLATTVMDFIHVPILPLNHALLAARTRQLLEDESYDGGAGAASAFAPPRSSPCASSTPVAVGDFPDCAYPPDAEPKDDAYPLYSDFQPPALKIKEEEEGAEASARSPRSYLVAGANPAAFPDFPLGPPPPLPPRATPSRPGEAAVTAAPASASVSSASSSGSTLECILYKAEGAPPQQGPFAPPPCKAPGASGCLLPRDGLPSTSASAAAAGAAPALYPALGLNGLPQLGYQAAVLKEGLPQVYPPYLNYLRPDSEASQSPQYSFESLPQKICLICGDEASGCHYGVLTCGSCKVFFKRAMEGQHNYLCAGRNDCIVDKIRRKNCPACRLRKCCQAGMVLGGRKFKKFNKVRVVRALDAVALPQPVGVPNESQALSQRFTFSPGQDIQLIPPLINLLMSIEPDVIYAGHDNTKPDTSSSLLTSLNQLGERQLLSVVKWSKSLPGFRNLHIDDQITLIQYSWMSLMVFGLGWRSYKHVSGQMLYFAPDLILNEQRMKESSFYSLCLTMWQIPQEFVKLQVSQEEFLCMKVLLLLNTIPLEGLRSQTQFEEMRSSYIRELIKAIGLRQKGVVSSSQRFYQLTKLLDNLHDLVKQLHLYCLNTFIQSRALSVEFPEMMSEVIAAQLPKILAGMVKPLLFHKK
Test: Binding Assay: Using cytosol from progesterone receptor-expressing insect cells (Hi5), competitive binding to the progesterone receptor was determined from the ability to displace 3H-progesterone as reference substance from the receptor.

C[C@]12CCC3C4CCC(=O)C=C4[C@@H]4C[C@@H]4C3C1C1CC1[C@@]21CCC(=O)O1 (stereo partly specified)
IC50: 16 nM

— ChEMBL document CHEMBL3639070, “19-nor-steroid derivatives with a 15Œ±,16Œ±-methylene group and a saturated 17,17-spirolactone ring, use thereof, and medicaments containing said derivatives” (2015)
